Test results from article PMC9532558 (Acta Pharmaceutica Sinica. B, 2022).
pKd: −log10 of the molar value.

Target: ATP6V0D1 (V-ATPase V0 domain subunit d1) (Homo sapiens, UniProt P61421)
Test: SPR
Type: binding

Sequence of ATP6V0D1 (V-ATPase V0 domain subunit d1) (P61421 whole entry, the tested form may be a part): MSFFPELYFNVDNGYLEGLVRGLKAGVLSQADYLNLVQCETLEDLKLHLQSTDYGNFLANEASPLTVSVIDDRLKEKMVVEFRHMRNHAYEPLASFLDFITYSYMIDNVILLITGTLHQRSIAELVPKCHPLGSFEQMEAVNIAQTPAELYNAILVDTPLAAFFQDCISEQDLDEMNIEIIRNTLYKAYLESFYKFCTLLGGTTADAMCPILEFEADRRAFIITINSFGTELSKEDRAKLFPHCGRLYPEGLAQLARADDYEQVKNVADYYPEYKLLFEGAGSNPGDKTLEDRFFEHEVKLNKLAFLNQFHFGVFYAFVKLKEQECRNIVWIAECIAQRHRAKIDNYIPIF

pKd: 5.70
SMILES: COc1cc2c(c(OC)c1OC)-c1c(cc(OC)c(OC)c1OC)C[C@](C)(O)[C@@H](C)C2 [SolA, Schisandrol A]
